Assay results published in patent publication US20160199351A1, “COMPOSITIONS AND METHODS FOR INHIBITING FUNGAL INFECTIONS” (priority 2015, published 2016).
Where two headings read alike, the source gives them in different places.

Key:
Lomentospora prolificans = assay: MIC, CLSI M38-A2 broth dilution (Table 1); assay type: cell-based; conditions: isolate LP1, 48 hours
Blastomyces dermatitidis = assay: MIC (Table 6); assay type: cell-based; conditions: for MIC: read-out: MIC 100%
C. guilliermondii = assay: MIC against Candida species (Table 4); conditions: Meyerozyma guilliermondii
C. parapsilosis = assay: MIC against Candida species (Table 4)
P. variotii = assay: MIC (Table 5); conditions: Paecilomyces variotii; for MIC: read-out: MIC 100%
Histoplasma capsulatum [1] = assay: organism not typed; assay type: cell-based
Rhizopus oryzae = assay: MIC (Table 5); conditions: Rhizopus arrhizus
C. krusei = assay: MIC against Candida species (Table 4); conditions: Pichia kudriavzevii; for MIC: read-out: MIC 100%
Apophysomyces [2] = assay: MIC, CLSI M38-A2 broth dilution (Table 1); assay type: cell-based
Histoplasma capsulatum [3] = assay type: cell-based; conditions: 24-hour treatment
Scedosporium sp. = assay: MIC (Table 5)
[4] = test system: Coccidioides immitis/posadasii; assay type: cell-based
Paeceilomyces variotii = assay: MIC, CLSI M38-A2 broth dilution (Table 1); assay type: cell-based; conditions: isolate QC
Apophysomyces [5] = assay: MIC (Table 5)

NCC(=O)Nc1ccc(-n2nc(C(F)(F)F)cc2-c2ccc3c(ccc4ccccc43)c2)cc1 [AR-12, 2-amino-N-(4-(5-(phenanthren-2-yl)-3-(trifluoromethyl)-1H-pyrazol-1-yl)phenyl)acetamide]
8 µg/mL: MIC50 (Rhizopus oryzae; isolate R-2, 48/72 hrs) | MIC (Rhizopus oryzae; read-out: MIC 100%, isolate R-2, 48/72 hrs)
0.5 µg/mL: MIC (Blastomyces dermatitidis; isolate BD1, 72/192 hrs)
5.4 µM: MIC (Histoplasma capsulatum [1]; read-out: MIC, concentration resulting in 50% inhibition of yeast growth)
4 µg/mL: MIC50 (C. guilliermondii; 24 h, isolate Cgu-5, 24 hrs) | MIC50 (C. guilliermondii; 24 h, isolate Cgu-6, 24 hrs) | MIC (C. guilliermondii; 24 h, read-out: MIC 100%, isolate Cgu-5, 24 hrs) | MIC (C. guilliermondii; 24 h, read-out: MIC 100%, isolate Cgu-6, 24 hrs) | MIC50 (C. guilliermondii; 48 h, isolate Cgu-1, 48 hrs) | MIC50 (C. guilliermondii; 48 h, isolate Cgu-5, 48 hrs) | MIC50 (C. guilliermondii; 48 h, isolate Cgu-6, 48 hrs) | MIC50 (C. guilliermondii; 48 h, isolate Cgu-7, 48 hrs) | MIC (C. guilliermondii; 48 h, read-out: MIC 100%, isolate Cgu-1, 48 hrs) | MIC (C. guilliermondii; 48 h, read-out: MIC 100%, isolate Cgu-2, 48 hrs) | MIC (C. guilliermondii; 48 h, read-out: MIC 100%, isolate Cgu-3, 48 hrs) | MIC (C. guilliermondii; 48 h, read-out: MIC 100%, isolate Cgu-5, 48 hrs) | MIC (C. guilliermondii; 48 h, read-out: MIC 100%, isolate Cgu-6, 48 hrs) | MIC (C. guilliermondii; 48 h, read-out: MIC 100%, isolate Cgu-7, 48 hrs) | MIC (C. parapsilosis; 24 h, read-out: MIC 100%, isolate CP-2, 24 hrs) | MIC (C. parapsilosis; 24 h, read-out: MIC 100%, isolate CP-3, 24 hrs) | MIC (C. parapsilosis; 24 h, read-out: MIC 100%, isolate CP-4, 24 hrs) | MIC (C. parapsilosis; 24 h, read-out: MIC 100%, isolate CP-6, 24 hrs) | MIC50 (C. parapsilosis; 48 h, isolate CP-1, 48 hrs) | MIC50 (C. parapsilosis; 48 h, isolate CP-2, 48 hrs) | MIC50 (C. parapsilosis; 48 h, isolate CP-3, 48 hrs) | MIC50 (C. parapsilosis; 48 h, isolate CP-4, 48 hrs) | MIC50 (C. parapsilosis; 48 h, isolate CP-5, 48 hrs) | MIC50 (C. parapsilosis; 48 h, isolate CP-6, 48 hrs) | MIC (C. parapsilosis; 48 h, read-out: MIC 100%, isolate CP-1, 48 hrs) | MIC (C. parapsilosis; 48 h, read-out: MIC 100%, isolate CP-2, 48 hrs) | MIC (C. parapsilosis; 48 h, read-out: MIC 100%, isolate CP-3, 48 hrs) | MIC (C. parapsilosis; 48 h, read-out: MIC 100%, isolate CP-4, 48 hrs) | MIC (C. parapsilosis; 48 h, read-out: MIC 100%, isolate CP-5, 48 hrs) | MIC (C. parapsilosis; 48 h, read-out: MIC 100%, isolate CP-6, 48 hrs) | MIC (C. parapsilosis; 48 h, read-out: MIC 100%, isolate CP-7, 48 hrs) | MIC (C. parapsilosis; 48 h, read-out: MIC 100%, isolate QC, 48 hrs) | MIC50 (P. variotii) | MIC (P. variotii; 24 h) | MIC (P. variotii) | MIC50 (Rhizopus oryzae; 24 h, isolate R-1, 24 hrs) | MIC50 (Rhizopus oryzae; 24 h, isolate R-2, 24 hrs) | MIC50 (Rhizopus oryzae; 24 h, isolate R-3, 24 hrs) | MIC50 (Rhizopus oryzae; 24 h, isolate R-4, 24 hrs) | MIC50 (Rhizopus oryzae; 24 h, isolate R-6, 24 hrs) | MIC (Rhizopus oryzae; 24 h, read-out: MIC 100%, isolate R-1, 24 hrs) | MIC (Rhizopus oryzae; 24 h, read-out: MIC 100%, isolate R-2, 24 hrs) | MIC (Rhizopus oryzae; 24 h, read-out: MIC 100%, isolate R-3, 24 hrs) | MIC (Rhizopus oryzae; 24 h, read-out: MIC 100%, isolate R-4, 24 hrs) | MIC (Rhizopus oryzae; 24 h, read-out: MIC 100%, isolate R-5, 24 hrs) | MIC (Rhizopus oryzae; 24 h, read-out: MIC 100%, isolate R-6, 24 hrs) | MIC50 (Rhizopus oryzae; isolate R-1, 48/72 hrs) | MIC50 (Rhizopus oryzae; isolate R-3, 48/72 hrs) | MIC50 (Rhizopus oryzae; isolate R-4, 48/72 hrs) | MIC50 (Rhizopus oryzae; isolate R-5, 48/72 hrs) | MIC50 (Rhizopus oryzae; isolate R-6, 48/72 hrs) | MIC (Rhizopus oryzae; read-out: MIC 100%, isolate R-1, 48/72 hrs) | MIC (Rhizopus oryzae; read-out: MIC 100%, isolate R-3, 48/72 hrs) | MIC (Rhizopus oryzae; read-out: MIC 100%, isolate R-4, 48/72 hrs) | MIC (Rhizopus oryzae; read-out: MIC 100%, isolate R-5, 48/72 hrs) | MIC (Rhizopus oryzae; read-out: MIC 100%, isolate R-6, 48/72 hrs) | MIC (C. krusei; 24 h) | MIC50 (C. krusei; 48 h) | MIC (C. krusei; 48 h) | MIC50 (Scedosporium sp.; isolate S-2, 48/72 hrs) | MIC (Scedosporium sp.; read-out: MIC 100%, isolate S-1, 48/72 hrs) | MIC (Scedosporium sp.; read-out: MIC 100%, isolate S-2, 48/72 hrs) | MIC50 (Apophysomyces [5]) | MIC (Apophysomyces [5]; 24 h, read-out: MIC 100%, isolate AE-1, 24 hrs) | MIC (Apophysomyces [5]; 24 h, read-out: MIC 100%, isolate AE-2, 24 hrs) | MIC 50% (Apophysomyces [5]; isolate AE-2, 48/72 hrs) | MIC (Apophysomyces [5]; read-out: MIC 100%, isolate AE-1, 48/72 hrs) | MIC (Apophysomyces [5]; read-out: MIC 100%, isolate AE-2, 48/72 hrs)
>16 gg/m1: MIC 100% (Apophysomyces [2]; isolate A1, 24 hours) | MIC 100% (Apophysomyces [2]; isolate A2, 24 hours)
1 µg/mL: MIC50 (Blastomyces dermatitidis; isolate BD3, 72/192 hrs)
8 to 40 µM: concentration that effectively prevents growth (Histoplasma capsulatum [1]; stated for all three fungi)
1 gg/m1: MIC 50% ([4]; isolate Cocci1, 48 hours) | MIC 100% ([4]; isolate Cocci1, 48 hours) | MIC 50% ([4]; isolate Cocci2, 48 hours) | MIC 100% ([4]; isolate Cocci2, 48 hours)
0.25 µg/mL: MIC50 (Blastomyces dermatitidis; isolate BD1, 72/192 hrs)
about 1000 fold: reduction of fungal viability (Histoplasma capsulatum [3]; then growth in absence of drug)
15.9 µM: MIC (Histoplasma capsulatum [1]; read-out: MIC, concentration resulting in 90% inhibition of yeast growth)
4 gg/m1: MIC 50% (Paeceilomyces variotii) | MIC 100% (Paeceilomyces variotii)
loss of yeast viability: viability staining of yeasts (Histoplasma capsulatum [3]; ethidium bromide / fluorescein staining)
2 µg/mL: MIC50 (Blastomyces dermatitidis; isolate BD2, 72/192 hrs) | MIC (Blastomyces dermatitidis; isolate BD2, 72/192 hrs) | MIC (Blastomyces dermatitidis; isolate BD3, 72/192 hrs) | MIC50 (C. guilliermondii; 24 h, isolate Cgu-1, 24 hrs) | MIC50 (C. guilliermondii; 24 h, isolate Cgu-2, 24 hrs) | MIC50 (C. guilliermondii; 24 h, isolate Cgu-3, 24 hrs) | MIC50 (C. guilliermondii; 24 h, isolate Cgu-4, 24 hrs) | MIC50 (C. guilliermondii; 24 h, isolate Cgu-7, 24 hrs) | MIC (C. guilliermondii; 24 h, read-out: MIC 100%, isolate Cgu-1, 24 hrs) | MIC (C. guilliermondii; 24 h, read-out: MIC 100%, isolate Cgu-2, 24 hrs) | MIC (C. guilliermondii; 24 h, read-out: MIC 100%, isolate Cgu-3, 24 hrs) | MIC (C. guilliermondii; 24 h, read-out: MIC 100%, isolate Cgu-4, 24 hrs) | MIC (C. guilliermondii; 24 h, read-out: MIC 100%, isolate Cgu-7, 24 hrs) | MIC50 (C. guilliermondii; 48 h, isolate Cgu-2, 48 hrs) | MIC50 (C. guilliermondii; 48 h, isolate Cgu-3, 48 hrs) | MIC50 (C. guilliermondii; 48 h, isolate Cgu-4, 48 hrs) | MIC (C. guilliermondii; 48 h, read-out: MIC 100%, isolate Cgu-4, 48 hrs) | MIC50 (C. parapsilosis; 24 h, isolate CP-1, 24 hrs) | MIC50 (C. parapsilosis; 24 h, isolate CP-2, 24 hrs) | MIC50 (C. parapsilosis; 24 h, isolate CP-3, 24 hrs) | MIC50 (C. parapsilosis; 24 h, isolate CP-4, 24 hrs) | MIC50 (C. parapsilosis; 24 h, isolate CP-5, 24 hrs) | MIC50 (C. parapsilosis; 24 h, isolate CP-6, 24 hrs) | MIC50 (C. parapsilosis; 24 h, isolate CP-7, 24 hrs) | MIC50 (C. parapsilosis; 24 h, isolate QC) | MIC (C. parapsilosis; 24 h, read-out: MIC 100%, isolate CP-1, 24 hrs) | MIC (C. parapsilosis; 24 h, read-out: MIC 100%, isolate CP-5, 24 hrs) | MIC (C. parapsilosis; 24 h, read-out: MIC 100%, isolate CP-7, 24 hrs) | MIC (C. parapsilosis; 24 h, read-out: MIC 100%, isolate QC, 24 hrs) | MIC50 (C. parapsilosis; 48 h, isolate CP-7, 48 hrs) | MIC50 (C. parapsilosis; 48 h, isolate QC) | MIC50 (P. variotii; 24 h) | MIC50 (Rhizopus oryzae; 24 h, isolate R-5, 24 hrs) | MIC50 (C. krusei; 24 h) | MIC50 (Scedosporium sp.; 24 h, isolate S-2, 24 hrs) | MIC (Scedosporium sp.; 24 h, read-out: MIC 100%, isolate S-2, 24 hrs) | MIC50 (Scedosporium sp.; isolate S-1, 48/72 hrs) | MIC50 (Apophysomyces [5]; 24 h) | MIC 50% (Apophysomyces [5]; isolate AE-2, 24 hrs)
2 gg/m1: MIC 50% (Lomentospora prolificans) | MIC 100% (Lomentospora prolificans) | MIC 50% (Apophysomyces [2]; isolate A1, 24 hours) | MIC 50% (Apophysomyces [2]; isolate A2, 24 hours) | MIC 50% ([4]; isolate Cocci3, 48 hours) | MIC 100% ([4]; isolate Cocci3, 48 hours)
